Where a name gives a salt, the structure may show the parent alone.
How the values were obtained:
Type in all cases: physicochemical
[1] = 7-days stability studies of solid forms (storage, then XRPD and HPLC)
Procedure: Form 1 of Compound 1: Method. About 10 mg of Form 1 of Compound 1 was placed in a 2 ml vial and stored for 7 days under the following conditions: A) 40° C./75% RH (open vial); B) 25° C./60% RH (open vial); C) 80° C. (sealed vial). Solids were analyzed by XRPD and submitted for HPLC.
Form 2 of Compound 1: Method. Portions of Form 1 of Compound 1 (10 mg) were placed in 1.5 ml vials. One vial was stored for 7 days under each of the following conditions: A) 40° C./75% RH (open vial); B) 25° C./60% RH (open vial); C) 80° C. (sealed vial). Solids were analyzed by XRPD and submitted for HPLC.

[2] = Dynamic vapour sorption (DVS); conditions: for weight increase (DVS): relative humidity from about 0 to about 90%, about 25° C.
Procedure: Approximately, 10-20 mg of sample was placed into a mesh vapour sorption balance pan and loaded into a DVS Advantage dynamic vapour sorption balance by Surface Measurement Systems. The sample was subjected to a ramping profile from 40-90% relative humidity (RH) at 10% increments, maintaining the sample at each step until a stable weight had been achieved (dm/dt 0.004%, minimum step length 30 minutes, maximum step length 500 minutes) at 25° C. After completion of the sorption cycle, the sample was dried using the same procedure to 0% RH and then a second sorption cycle back to 40% RH. Two cycles were performed. The weight change during the sorption/desorption cycles were plotted, allowing for the hygroscopic nature of the sample to be determined. XRPD analysis was then carried out on any solid retained.

[3] = Stability studies of Form A of a besylate salt (XRPD); conditions: 40° C. and 75% RH for 7 days
Excerpt: No changes in form were observed by XRPD.

[4] = Compression test at 100 and 250 MPa (XRPD after compression)
Procedure: Approximately 100 mg of Form 1 of Compound 1 was placed inside a FT-IR press, and a pressure of 100 MPa was applied and held for 60 seconds. The resulting material was analyzed by XRPD.
Approximately 100 mg of Form 1 of Compound 1 was placed inside the apparatus of the compression clamp. This apparatus was placed inside the compression clamp and a pressure of 250 MPa was applied and hold for 60 seconds. The resulting material was analyzed by XRPD.

[5] = Stability study of Compound 1 (Form 1) drug substance at three storage conditions
Procedure: A stability study was conducted for Compound 1 (Form 1) at three storage conditions: (1) 5° C.±3° C., ambient relative humidity (RH), data collected at 0 and 1 month; (2) 25° C.±2° C., 60%±5% RH, data collected at 0, 1, 3, 6, 9, and 12 months; and (3) 40° C.±2° C., 75%±5% RH, data collected at 0, 1, 3, and 6 months.

CCn1ncc2c1-c1cnc(N)c(c1)O[C@H](C)c1cc(F)ccc1-c1nn(C)nc1C2 [Form 2]
solid form stability by XRPD ([1]; 25° C./60% RH, 7 days): stable | solid form stability by XRPD ([1]; 40° C./75% RH, 7 days): stable | solid form by XRPD after storage ([1]; 80° C. (sealed vial), 7 days): correspond to that for Form 7

CCn1ncc2c1-c1cnc(N)c(c1)O[C@H](C)c1cc(F)ccc1-c1nn(C)nc1C2 [Form A of a besylate salt of Compound 1]
hygroscopicity [2]: hygroscopic | weight increase (DVS) [2]: about 2% | weight increase (DVS) ([2]; listed as Form A of a Besylate Salt of Compound 1): 2% | physical stability (form by XRPD) [3]: physically stable

CCn1ncc2c1-c1cnc(N)c(c1)O[C@H](C)c1cc(F)ccc1-c1nn(C)nc1C2 [Form 1 of Compound 1]
% Purity by HPLC ([1]; 25° C./60% RH (open vial), 7 days): 99.58% | % Purity by HPLC ([1]; 40° C./75% RH (open vial), 7 days): 99.66% | % Purity by HPLC ([1]; 80° C. (sealed vial), 7 days): 99.58% | stability of the solid form ([1]; all tested conditions (40° C./75% RH, 25° C./60% RH, 80° C.), 7 days): stable under all tested conditions | purity by HPLC after storage ([1]; all three samples: 40° C./75% RH, 25° C./60% RH, 80° C., one week): > 99.5% | stability to compression (crystalline form by XRPD) ([4]; 100 MPa for 60 seconds): stable | stability to compression (crystalline form by XRPD) ([4]; 250 MPa for 60 seconds): stable | hygroscopicity [2]: non-hygroscopic | weight increase (DVS) [2]: about 0.25%

CCn1ncc2c1-c1cnc(N)c(c1)O[C@H](C)c1cc(F)ccc1-c1nn(C)nc1C2 [Compound 1]
chemical and physical stability (description, assay, related substances, water content, polymorphic form, chiral purity) ([5]; 25° C.±2° C./60%±5% RH, 12 months): No meaningful changes | chemical and physical stability (description, assay, related substances, water content, polymorphic form, chiral purity) ([5]; 40° C.±2° C./75%±5% RH, 6 months): No meaningful changes | compliance with acceptance criteria (purity at least 97%, individual impurities ≤0.2%, total ≤2.0%, enantiomeric purity at least 99.5%, Form 1) ([5]; all time points): complied with the acceptance criteria

CCn1ncc2c1-c1cnc(N)c(c1)O[C@H](C)c1cc(F)ccc1-c1nn(C)nc1C2 [Form 7]
weight increase (DVS) [2]: about 0.27%

— US12630560B2, “Solid forms, pharmaceutical compositions and preparation of heteroaromatic macrocyclic ether compounds” (Nuvalent, Inc., priority 2021, dated 2026)
